# Experimental data: US6951887B2 (The Research Foundation of State University of New York, priority 1998, dated 2005)
# Tests used:
# SW480 (Colon) = assay: killing of cultured cells, SW480; type: cell-based; parameters: key: “+” indicates that the cells were killed by treatment; “−” indicates that they were not; “+/−” indicates a slow marginal response seen only in a few special cases with fibroblasts experimentally transformed by introduction of the ras oncogene; settings: compound at two to fourfold above its threshold killing concentration
# Description: (§1) Table 1: Summarized are the responses of cells in culture to killing by example members of the family of blocked lipoate derivatives that are the object of this invention as well as one control compound (dihydroxyoctanoic acid). At right is indicated the specific cell line followed by the tissue of origin of the cell line. Across the top are listed the specific compounds tested. Each blocked lipoate derivative was used at two to fourfold above its threshold killing concentration. [These concentrations range form 0.15 mM (60 ug/ml or 60 mg/kg) to 2.5 mM (800 ug/ml or 800 mg/kg) (see EXAMPLE 11).] […] “+/−” indicates a slow marginal response seen only in a few special cases with fibroblasts experimentally transformed by introduction of the ras oncogene (EXAMPLE 10).
# (§2) First, each cell type to be tested was plated at low densities in the wells of a standard 6×24 well tissue culture plate. (Multiple wells are seeded for each cell type.)
# (§3) Second, the cells were allowed to grow to moderate densities. Transformed cells are in contact and non-transformed cells are contact-inhibited under these conditions.
# (§4) Third, the lipoate derivatives to be tested were added to individual wells. In these experiments each compound was added at two to fourfold above the threshold killing concentration for cancer cells (EXAMPLE 11).
# (§5) Fourth, cells were monitored over the next several days.
# NIH 3T3 parental = assay: killing of cultured cells, parental NIH 3T3; type: cell-based; settings: 120 ug/ml, ca. 24 hours of treatment
# Description: as §1, §2
# Second, the cells were allowed to grow to moderate densities. Transformed cells are in contact and non-transformed cells are contact-inhibited under these conditions. […]
# as §5
# (§6) NIH-3T3 cells are relatively normal, noncancerous cells. However, if an activated allele of the ras oncogene is introduced into these cells they become highly malignant (cancerous) as assessed by several assays (REFERENCE).
# LnCap (Prostate) = assay: killing of cultured cells, LnCap; type: cell-based; parameters: key: “+” indicates that the cells were killed by treatment; “−” indicates that they were not; “+/−” indicates a slow marginal response seen only in a few special cases with fibroblasts experimentally transformed by introduction of the ras oncogene; settings: compound at two to fourfold above its threshold killing concentration
# Description: as §1, §2, §3, §4, §5
# B-16 melanoma = assay: B-16 system, subcutaneous tumors; type: in vivo, mouse; settings: 50 mg/kg IP twice daily plus twice daily injection directly into the tumor mass
# Description: The B-16 melanoma strain was introduced either subcutaneously or intraperitoneally into individuals of the C57/BL syngeneic mouse strain (7). When left untreated such mice develop massive tumors in the immediate area of injection as well as secondary metastases throughout the animal—including in the liver and the lungs. These malignant growths result in the early death of the animals. Moreover, the resulting malignant growths are made up of darkly pigmented malignant melanocytes—making their assessment convenient and highly reliable. We will henceforth refer to this as the “B-16 system”.
# Second, a group of animals were injected at a subcutaneous site with B-16 cells. […] As this time, one group oL animals (experimentals) began a twice-daily series of injections of the bis-acetyl lipoate derivative (100 mg/kg in 100 ul of isotonic saline) and a second set (controls) of corresponding injections of the saline solvent alone. [See EXAMPLES 2, 8 and 11 for the details of bis-acetyl lipoate derivative.]
# Third, in several animals subcutaneous tumors were produced as in the preceding paragraph. After the tumors had grown to visible, palpable size, these animals received both a twice daily IP (systemic) dose of 50 mg/kg of bis-benzoyl lipoate as well as a twice daily direct injection a second dose of the same volume directly into the tumor mass.
# HeLa cells = assay: killing of HeLa cells with or without dichloroacetate (DCA); type: cell-based; settings: compound ca. twofold above threshold killing dose plus 5 mM DCA
# Description: HeLa cells were plated at moderate densities and allowed to attach and grow for ca. 24 hours in a series of wells in a multi-well tissue culture plate. To individual wells of the first subset (control) were added bis-acetyl lipoate, mono-acetyl lipoate or bis-benzoyl lipoate—each at ca. twofold above the threshold killing dose (EXAMPLE 11). To an equivalent (experimental) subset of wells were added these same compounds at the same dose together with the simultaneous addition of DCA to 5 mM final concentration.
# A549 (Lung) = assay: killing of cultured cells, A549; type: cell-based; parameters: key to cells killed by treatment: “+” indicates that the cells were killed by treatment; “−” indicates that they were not; “+/−” indicates a slow marginal response seen only in a few special cases with fibroblasts experimentally transformed by introduction of the ras oncogene
# Description: as §1, §2, §3, §4, §5
# Hep G2 = assay: killing of cultured cells, Hep G2; type: cell-based; parameters: key to cells killed by treatment: “+” indicates that the cells were killed by treatment; “−” indicates that they were not; “+/−” indicates a slow marginal response seen only in a few special cases with fibroblasts experimentally transformed by introduction of the ras oncogene
# Description: as §1, §2, §3, §4, §5
# NIH 3T3 ras transformed = assay: killing of cultured cells, ras-transformed NIH 3T3 (T24); type: cell-based; parameters: key to cells killed by treatment: “+” indicates that the cells were killed by treatment; “−” indicates that they were not; “+/−” indicates a slow marginal response seen only in a few special cases with fibroblasts experimentally transformed by introduction of the ras oncogene
# Description: as §1, §2, §3, §4, §5, §6
# cancer cells in culture = assay: threshold killing concentration and dose response in cultured cells; type: cell-based
# Description: First, each compound killed cancer cells in culture at or above a relatively narrow, specific concentration range, but not below. The threshold concentrations given below represent the approximate center of this range which extended roughly two to threefold. […] Below these saturation ranges, sensitive cells survived and grew. They could be removed and replated to grow, apparently indefinitely, under these conditions. […] This was a highly unusual dose/response profile. The threshold killing concentrations (ranges) varied between individual compounds. Examples of these threshold killing concentrations were as follows: bis-benzoyl lipoate (EXAMPLE 3) 60 mg/liter (60 mg/kg), monoacetyl lipoate (EXAMPLE 4) 100 mg/liter (100 mg/kg); bis-acetyl lipoate (EXAMPLE 2) 600 mg/liter (600 mg/kg).
# These changes were ultimately followed by cell death if treatment was continued. However, these morphological changes were reversed, and the cells recovered, if the lipoate derivative was removed during this initial exposure. As with the dose/response profile of the preceeding paragraph, this reversible induction of morphological change followed by commitment to cell death is highly idiosyncratic. The discovery that this behavior was shown by all tested members of the class of compounds that are the object of this invention was, again, very strong evidence that these compounds are, in fact, a functionally coherent class.
# HeLa (Cervix) = assay: killing of cultured cells, HeLa; type: cell-based; parameters: key to cells killed by treatment: “+” indicates that the cells were killed by treatment; “−” indicates that they were not; “+/−” indicates a slow marginal response seen only in a few special cases with fibroblasts experimentally transformed by introduction of the ras oncogene
# Description: as §1, §2, §3, §4, §5
structure (smiles),measurement,setting,value
"O=C(O)CCCCC(CCSC(=O)c1ccccc1)SC(=O)c1ccccc1 (stereo not shown) [bis-benzoyl lipoate, 6,8-bisbenzoylmercaptooctanoic acid]",cells killed by treatment,SW480 (Colon),+
same,effect on noncancerous parental NIH3T3 cells (FIG. 2),NIH 3T3 parental,unaffected
same,cells killed by treatment,LnCap (Prostate),+
same,response of subcutaneous tumor,B-16 melanoma,especially robust response
same,speed of cell killing with DCA relative to compound alone,HeLa cells,approximately twvice as rapidly
same,"cell killing, lung cancer cells (FIG. 1)","A549 (Lung); 120 ug/ml, ca. 48 hours",efficiently killed
same,cells killed by treatment,"A549 (Lung); A549, Lung, compound at two to fourfold above its threshold killing concentration",+
same,"cell killing, liver cancer cells (FIG. 1)","Hep G2; 120 ug/ml, ca. 48 hours",efficiently killed
same,cells killed by treatment,"Hep G2; Hep G2, compound at two to fourfold above its threshold killing concentration",+
same,cancerous (transformed) cells killed (FIG. 2),"NIH 3T3 ras transformed; 120 ug/ml, 24 hours of treatment, T24 ras-transformed NIH3T3",ca. 50%
same,killing of transformed cells (FIG. 2),"NIH 3T3 ras transformed; 120 ug/ml, ca. 48 hours of treatment",almost entirely irradicated
same,cells killed by treatment,"NIH 3T3 ras transformed; NIH 3T3 ras transformed, compound at two to fourfold above its threshold killing concentration",+
same,effective dose in cell culture,cancer cells in culture,60 µg/mL
same,threshold killing concentration,cancer cells in culture; approximate center of a range extending two to threefold,60 mg/L
same,cells killed by treatment,"HeLa (Cervix); Cervix, compound at two to fourfold above its threshold killing concentration",+
same,time by which all cancer cells are killed,HeLa (Cervix); conditions of FIG. 3,48 to 60 h
